# Tested on: S. cerevisiae tim23-1 mutant growth, luminescence
# Experiment: growth inhibition of tim23-1 mutant yeast, dose response, counter-screen for tim10-1 yeast inhibitor project, luminescence, uHTS hits (AID 504544)
row,SMILES,IC50 [µM]
1,O=C(N/N=C/c1ccc[nH]1)c1cc(-c2ccc(Cl)cc2)nc2ccccc12,8.98
2,Fc1c(F)c(C(F)(F)F)c(F)c(F)c1N/N=C\c1cccs1,7.37
3,O=C(Nc1cccc(N2C(=O)C=CC2=O)c1)c1cccs1,2.52
4,O=C(/C=C\c1ccc(-c2ccccc2)o1)c1ccccc1,3.01
5,COc1cc(C(=O)Nc2ccc(Cl)c(C(F)(F)F)c2)cc(OC)c1OC,33.3
6,Cc1ccc(NC(=S)Nc2ccc(Cl)c(Cl)c2)c(OC(F)F)c1,14.4
7,CC(C)Nc1nnc(Sc2ccc(Cl)cc2[N+](=O)[O-])s1,2.66
8,CNC(=O)c1nnsc1S(=O)(=O)c1ccc(Cl)cc1,11.5
9,COc1ccccc1N1C(=O)CC(Sc2n[nH]c(-c3cccc(C)c3)n2)C1=O (stereo unspecified),7.77
10,O=C(NNC(=S)Nc1cccc(C(F)(F)F)c1)c1ccc(Cl)cc1Cl,7.04
11,N/C(Cc1ccc(Cl)cc1Cl)=N\OC(=O)Cc1ccc(Cl)cc1,1.39
12,COc1ccc(-c2cc(C3CC3)nc3sc(C#N)c(N)c23)cc1,6.84
13,C=CC(=O)Oc1ccc(N2Cc3ccccc3C2=O)cc1,3.33
14,N/C(=N\OC(=O)CCCc1ccccc1)c1ccccc1Cl,14
15,N/C(Cc1ccc(Cl)cc1)=N\OC(=O)c1ccc2ccccc2c1,0.38
16,O=C(c1ccc2c3n(nc2c1)-c1ccccc1CO3)N1CCCCC1,9.67
17,Cc1ccc(F)c([C@H]2C3C=CCC(c4ccccc4)C3C(=O)N2Cc2ccccc2)c1 (stereo partly specified),14.7
18,Cc1ccc(/C(N)=N/OC(=O)C(C)c2ccc([N+](=O)[O-])cc2)cc1 (stereo unspecified),41.9
19,O=[N+]([O-])c1ccccc1N/N=C/c1c[nH]c2ccccc12,15.7
20,COc1ccc2cc3cc(C(=O)NCCN4CCc5ccccc5C4)oc3nc2c1,3.34
21,Fc1ccccc1CNC(=S)Nc1cccc(C(F)(F)F)c1,11.8
22,O=C(c1cc(COc2ccc(F)cc2Cl)on1)N1CCN(c2cnccn2)CC1,5.45
23,CC(C)c1nnc(NC(=O)CCS(=O)(=O)c2nc(-c3cccs3)cc(C(F)(F)F)n2)s1,8.43
24,CN=C(Nc1cc(Cl)ccc1Cl)SC1CC(=O)N(c2ccc(C(=O)OC)cc2)C1=O (stereo unspecified),15.4
25,Cn1c(Cl)cnc1C1CC(=O)c2cc(Cl)ccc2O1 (stereo unspecified),4.44
26,COc1ccc(C(=O)O/N=C(\N)c2ccc(Br)cc2)cc1,14.4
